Target: T1, USP7 (Homo sapiens, UniProt Q93009)
T1 construct: The USP7 construct was PCR amplified and cloned into a pFLAG-CMV-6a vector (Sigma-Aldrich) with an N-terminal FLAG tag; made in house; host or cells: HEK293T
Test: USP7 biochemical IC50 assay (fluorescence polarisation, TAMRA labelled peptide linked to ubiquitin via an iso-peptide bond)
Conditions: 30 min pre-incubation of enzyme and compound, read after 2 hr incubation at room temperature, read-out: IC50 range
How it was run: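 Fluorescence polarisation at 540 nm excitation/590 nm emission, read immediately and after 2 hr at room temperature, following addition of 50 nM TAMRA-labelled iso-peptide ubiquitin substrate.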

T1 sequence (Q93009 whole entry): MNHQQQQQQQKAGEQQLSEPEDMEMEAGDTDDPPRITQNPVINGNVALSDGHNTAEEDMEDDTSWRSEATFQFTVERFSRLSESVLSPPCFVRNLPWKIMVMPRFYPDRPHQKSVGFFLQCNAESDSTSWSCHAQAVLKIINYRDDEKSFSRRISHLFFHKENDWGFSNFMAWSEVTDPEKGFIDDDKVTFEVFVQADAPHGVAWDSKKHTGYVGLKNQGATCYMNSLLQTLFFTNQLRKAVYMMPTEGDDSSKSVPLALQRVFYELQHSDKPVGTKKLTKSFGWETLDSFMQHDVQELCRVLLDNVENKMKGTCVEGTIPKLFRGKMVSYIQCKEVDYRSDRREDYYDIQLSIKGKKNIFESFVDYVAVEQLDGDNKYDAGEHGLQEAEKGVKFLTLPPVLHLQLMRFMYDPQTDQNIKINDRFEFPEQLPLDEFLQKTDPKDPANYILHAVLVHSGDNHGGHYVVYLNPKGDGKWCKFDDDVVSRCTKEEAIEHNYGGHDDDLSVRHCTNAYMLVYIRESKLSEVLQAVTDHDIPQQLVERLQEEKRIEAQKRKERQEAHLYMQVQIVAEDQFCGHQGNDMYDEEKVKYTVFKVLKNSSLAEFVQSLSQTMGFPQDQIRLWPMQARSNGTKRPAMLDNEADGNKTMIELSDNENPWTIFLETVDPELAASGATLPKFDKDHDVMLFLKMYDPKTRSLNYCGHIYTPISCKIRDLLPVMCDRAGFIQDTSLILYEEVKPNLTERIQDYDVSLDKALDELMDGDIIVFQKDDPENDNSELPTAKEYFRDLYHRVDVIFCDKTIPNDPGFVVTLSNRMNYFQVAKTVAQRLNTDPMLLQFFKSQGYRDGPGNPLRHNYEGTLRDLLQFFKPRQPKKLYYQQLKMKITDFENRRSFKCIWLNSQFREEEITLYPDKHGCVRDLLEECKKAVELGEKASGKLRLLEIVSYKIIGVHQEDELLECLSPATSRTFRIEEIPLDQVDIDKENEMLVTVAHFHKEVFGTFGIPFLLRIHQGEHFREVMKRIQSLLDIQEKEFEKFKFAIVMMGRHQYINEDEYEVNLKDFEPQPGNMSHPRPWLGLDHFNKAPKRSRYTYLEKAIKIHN

Compound | IC50
N#CN1Cc2nc(NC(=O)C3CNC(=O)C3)nc(-c3ccccc3)c2C1 (stereo not drawn) [Example 129, N-(6-cyano-4-phenyl-6,7-dihydro-5H-pyrrolo[3,4-c]pyrimidin-2-yl)-5-oxopyrrolidine-3-carboxamide] | 10 to 30 µM
N#CN1Cc2nc(Cl)nc(-c3ccc(F)cc3)c2C1 [Example 149, 2-chloro-4-(4-fluorophenyl)-5,7-dihydro-6H-pyrrolo[3,4-d]pyrimidine-6-carbonitrile] | 10 to 30 µM
N#CN1Cc2nccc(-c3cccc(Cl)c3)c2C1 [Example 18, 4-(3-chlorophenyl)-5,7-dihydro-6H-pyrrolo[3,4-b]pyridine-6-carbonitrile] | 1 to 10 µM
COC(C)(O)CNc1cc2c(c(-c3ccc(C#N)cc3)c1)CN(C#N)C2 (stereo not drawn) [Example 288, 4-(4-cyanophenyl)-6-((2-hydroxy-2-methoxypropyl)amino)iso-indoline-2-carbonitrile] | 1 to 10 µM
COc1ccc(-c2ccnc3c2CN(C#N)C3)cc1 [Example 17, 4-(4-methoxyphenyl)-5,7-dihydro-6H-pyrrolo[3,4-b]pyridine-6-carbonitrile] | 1 to 10 µM
COCc1ccc(C(=O)Nc2cccc3c2CN(C#N)C3)cc1 [Example 88, N-(2-cyanoisoindolin-4-yl)-4-(methoxymethyl)benzamide] | 10 to 30 µM
N#CN1Cc2nccc(-c3cccc(C(=O)NCc4ccccc4)c3)c2C1 [Example 15, N-benzyl-3-(6-cyano-6,7-dihydro-5H-pyrrolo[3,4-b]pyridin-4-yl)benzamide] | 10 to 30 µM
N#CN1Cc2cccc(C(=O)NCc3ccccc3)c2C1 [Example 95, N-benzyl-2-cyanoisoindoline-4-carboxamide] | 10 to 30 µM
CCN(CC)c1cc2c(c(-c3ccc(C#N)cc3)c1)CN(C#N)C2 [Example 279, 4-(4-Cyanophenyl)-6-(diethylamino)isoindoline-2-carbonitrile] | 1 to 10 µM
N#Cc1ccc(-c2c(F)ccc3c2CN(C#N)C3)c(C(N)=O)c1 [Example 260, 5-cyano-2-(2-cyano-5-fluoroisoindolin-4-yl)benzamide] | 1 to 10 µM
Cn1cc(CNc2nc3c(c(N4CCc5ccccc5C4)n2)CN(C#N)C3)cn1 [Example 201, 4-(3,4-dihydroisoquinolin-2(1H)-yl)-2-(((1-methyl-1H-pyrazol-4-yl)methyl)amino)-5,7-dihydro-6H-pyrrolo[3,4-d]pyrimidine-6-carbonitrile] | 1 to 10 µM
N#CN1Cc2cccc(NC(=O)c3cccc(NC(=O)C4CC4)c3)c2C1 [Example 80, N-(2-cyanoisoindolin-4-yl)-3-(cyclopropanecarboxamido)benzamide] | 1 to 10 µM
N#CN1Cc2nc(NCCO)nc(N3CCc4ccccc4C3)c2C1 [Example 202, 4-(3,4-dihydroisoquinolin-2(1H)-yl)-2-((2-hydroxyethyl)amino)-5,7-dihydro-6H-pyrrolo[3,4-d]pyrimidine-6-carbonitrile] | 1 to 10 µM
CC(=O)Nc1nc2c(c(-c3cccc(NS(C)(=O)=O)c3)n1)CN(C#N)C2 [Example 109, N-(6-cyano-4-(3-(methylsulfonamido)phenyl)-6,7-dihydro-5H-pyrrolo[3,4-d]pyrimidin-2-yl)acetamide] | 1 to 10 µM
N#CN1Cc2cccc(-c3ccccc3C(=O)N3CCNCC3)c2C1 [Example 78, 4-(2-(piperazine-1-carbonyl)phenyl)isoindoline-2-carbonitrile] | 1 to 10 µM
N#CN1Cc2ncnc(N3CCC(Oc4ccccc4C(N)=O)CC3)c2C1 [Example 103, 2-((1-(6-cyano-6,7-dihydro-5H-pyrrolo[3,4-d]pyrimidin-4-yl)piperidin-4-yl)oxy)benzamide] | 10 to 30 µM
N#CN1Cc2ccnc(-c3ccccc3)c2C1 [Example 19, 4-phenyl-1,3-dihydro-2H-pyrrolo[3,4-c]pyridine-2-carbonitrile] | 1 to 10 µM
N#Cc1ccc(-c2cc(NC(=O)C3CCOCC3)cc3c2CN(C#N)C3)cc1 [Example 264, N-(2-cyano-7-(4-cyanophenyl)isoindolin-5-yl)tetrahydro-2H-pyran-4-carboxamide] | 1 to 10 µM
N#CN1Cc2cccc(NC(=O)c3ccc(N4CCOCC4)s3)c2C1 [Example 93, N-(2-cyanoisoindolin-4-yl)-5-morpholinothiophene-2-carboxamide] | 1 to 10 µM
Cn1nccc1CNc1nc2c(c(N3CCc4ccccc4C3)n1)CN(C#N)C2 [Example 198, 4-(3,4-dihydroisoquinolin-2(1H)-yl)-2-(((1-methyl-1H-pyrazol-5-yl)methyl)amino)-5,7-dihydro-6H-pyrrolo[3,4-d]pyrimidine-6-carbonitrile] | 1 to 10 µM

Now from value to compound:

IC50 | Compound
1 to 10 µM | CN1CC(C(=O)Nc2cc3c(c(-c4ccc(C#N)cc4)c2)CN(C#N)C3)CC1=O (stereo not drawn) [Example 265, N-(2-cyano-7-(4-cyanophenyl)isoindolin-5-yl)-1-methyl-5-oxopyrrolidine-3-carboxamide]
1 to 10 µM | Cc1nc2c(c(-c3ccc(F)cc3)n1)CN(C#N)C2 [Example 151, 4-(4-fluorophenyl)-2-methyl-5,7-dihydro-6H-pyrrolo[3,4-d]pyrimidine-6-carbonitrile]
1 to 10 µM | CS(=O)(=O)c1ccccc1-c1cccc2c1CN(C#N)C2 [Example 162, 4-(2-(methylsulfonyl)phenyl)isoindoline-2-carbonitrile]
1 to 10 µM | CC(=O)Nc1nc2c(c(-c3cccc(OC(F)(F)F)c3)n1)CN(C#N)C2 [Example 106, N-(6-cyano-4-(3-(trifluoromethoxy)phenyl)-6,7-dihydro-5H-pyrrolo[3,4-d]pyrimidin-2-yl)acetamide]
< 1 µM | N#CN1Cc2cc(NC(=O)C3CCCNC3)cc(-c3ccccc3)c2C1 (stereo not drawn) [Example 62, N-(2-cyano-7-phenylisoindolin-5-yl)piperidine-3-carboxamide]
1 to 10 µM | CC(=O)Nc1nc2c(c(-c3cccc(C#N)c3)n1)CN(C#N)C2 [Example 105, N-(6-cyano-4-(3-cyanophenyl)-6,7-dihydro-5H-pyrrolo[3,4-c]pyrimidin-2-yl)acetamide]
1 to 10 µM | CS(=O)(=O)CCNc1nc2c(c(-c3ccccc3)n1)CN(C#N)C2 [Example 188, 2-((2-(methylsulfonyl)ethyl)amino)-4-phenyl-5,7-dihydro-6H-pyrrolo[3,4-d]pyrimidine-6-carbonitrile]
1 to 10 µM | N#CN1Cc2nc(NCc3ccccn3)cc(-c3ccc(F)cc3)c2C1 [Example 247, 4-(4-fluorophenyl)-2-((pyridin-2-ylmethyl)amino)-5,7-dihydro-6H-pyrrolo[3,4-b]pyridine-6-carbonitrile]
1 to 10 µM | N#CN1Cc2nc(-c3cn[nH]c3)nc(N3CCc4ccccc4C3)c2C1 [Example 145, 4-(3,4-dihydroisoquinolin-2(1H)-yl)-2-(1H-pyrazol-4-yl)-5,7-dihydro-6H-pyrrolo[3,4-d]pyrimidine-6-carbonitrile]
1 to 10 µM | CN1CCOC(CNc2nc3c(c(-c4ccc(F)cc4)n2)CN(C#N)C3)C1 (stereo not drawn) [Example 194, 4-(4-fluorophenyl)-2-(((4-methylmorpholin-2-yl)methyl)amino)-5,7-dihydro-6H-pyrrolo[3,4-d]pyrimidine-6-carbonitrile]
1 to 10 µM | CNC(=O)NCc1cc2c(c(-c3ccccc3C#N)c1)CN(C#N)C2 [Example 229, 1-((2-cyano-7-(2-cyanophenyl)isoindolin-5-yl)methyl)-3-methylurea]
1 to 10 µM | Cc1ccccc1-c1cccc2c1CN(C#N)C2 [Example 12, 4-(o-tolyl)isoindoline-2-carbonitrile]
< 1 µM | CN1CCCC(CNc2cc3c(c(-c4ccccc4)c2)CN(C#N)C3)C1 (stereo not drawn) [Example 64, 6-(((1-methylpiperidin-3-yl)methyl)amino)-4-phenylisoindoline-2-carbonitrile]
1 to 10 µM | CS(=O)(=O)Cc1cc2c(c(-c3ccc(C#N)cc3)c1)CN(C#N)C2 [Example 216, 4-(4-cyanophenyl)-6-((methylsulfonyl)methyl)isoindoline-2-carbonitrile]
< 1 µM | COCCn1cc(-c2nc3c(c(N4CCc5ccccc5C4)n2)CN(C#N)C3)cn1 [Example 146]
1 to 10 µM | CC(=O)Nc1nc2c(c(-c3ccccc3)n1)CN(C#N)C2 [Example 104, N-(6-cyano-4-phenyl-6,7-dihydro-5H-pyrrolo[3,4-c]pyrimidin-2-yl)acetamide]
1 to 10 µM | N#Cc1ccc(-c2cc(NC3CCOCC3)cc3c2CN(C#N)C3)cc1 [Example 274, 4-(4-cyanophenyl)-6-((tetrahydro-2H-pyran-4-yl)amino)isoindoline-2-carbonitrile]
1 to 10 µM | CN(C)C(=O)c1cc2c(c(-c3ccc(C#N)cc3)c1)CN(C#N)C2 [Example 232, 2-cyano-7-(4-cyanophenyl)-N,N-dimethylisoindoline-5-carboxamide]
1 to 10 µM | N#Cc1cc(-n2ccnc2)ccc1-c1cccc2c1CN(C#N)C2 [Example 181, 4-(2-cyano-4-(1H-imidazol-1-yl)phenyl)isoindoline-2-carbonitrile]
1 to 10 µM | N#CN1Cc2ncnc(N3Cc4ccccc4C3)c2C1 [Example 100, 4-(isoindolin-2-yl)-5,7-dihydro-6H-pyrrolo[3,4-c]pyrimidine-6-carbonitrile]
< 1 µM | N#Cc1ccc(-c2cc(CNc3ccn[nH]3)cc3c2CN(C#N)C3)cc1 [Example 230, 6-(((1H-pyrazol-5-yl)amino)methyl)-4-(4-cyanophenyl)isoindoline-2-carbonitrile]
1 to 10 µM | N#Cc1ccc(-c2cccc3c2CN(C#N)C3)c2c1CCC2=O [Example 176, 4-(7-cyano-3-oxo-2,3-dihydro-1H-inden-4-yl)isoindoline-2-carbonitrile]
